Test [1] concerns S. pneumonia cells. Kind of test: MIC in vitro broth micro-dilution assay, S. pneumonia. The format is cell-based, Streptococcus pneumonia. As to conditions: lowest concentration to fully inhibit visible growth (OD600), clinical isolate; for MIC: Streptococcus pneumoniae, read-out: in vitro susceptibility (MIC) S. Pneumonia. The procedure:
(§1) Bacterial susceptibility was established through an in vitro cell-based broth micro-dilution assay. To produce accurate and reproducible MIC-values, a procedure was used which follows the guidelines set by the Clinical and Laboratory Standards Institute (CLSI, USA) and the European Committee on Antimicrobial Susceptibility Testing (EUCAST). The micro-dilutions were carried out in 96-well plates, according to FIG. 3, wherein column 1 is a growth control, Columns 2 to 11 are dilutions of 1×, 2×, 4×, 8×, 16×, 32×, 64×, 128×, 256×, 512× respectively, and column 12 is a sterile control. To further increase the reliability of each susceptibility test, inoculation involved the use of three independent overnight cultures (ON1-ON3) thus giving rise to […]. Furthermore, each ON was added to two individual dilution rows, giving rise to […]. The standard inoculum was set to ˜5-10^5 colony-forming units (CFU) mL^−1. This was verified by dilution onto agar plates after each overall run.
(§2) The applied procedure was:
(§3) 1.1 MH or BHI agar plates for dilutions were created, 1 plate per overnight (ON) culture and MH or BHI media. 1.2 Day 1: Preparation of ON cultures of the bacterial strain in question, by inoculation of a single colony in 5 mL of MH or BHI media. Then incubation at 37° C. with aeration for approximately 16-20 hours. Biological triplicates were created by inoculation from 3 different colonies per strain.
(§4) 1.3 Day 2: A 96-well plate with the antibiotic/compound in question was prepared as according to FIG. 3: 1.4 In a 15 mL falcon tube, an appropriate volume of a 1000 μg/mL antibiotic/compound DMSO stock was diluted with MH or BHI media such that a 2× concentration and total volume of 10 mL was achieved. 1.5 A multi-channel pipette was used in the following. 1.6 Column 1 was used for growth control, so no antibiotic/compound was added to that column. 1.7 200 μl of 2× concentration of the antibiotic/compound was added to column 2. Technical duplicates were always created, thus 2 columns per ON culture. 1.8 100 μl of MH or BHI media was added to columns 1, 3-11 and 200 μl of MH or BHI media to column 12. 1.9 100 μl was transferred from column 2 to column 3. The same pipetting tips were used to transfer 100 μL from column 3 to 4. This scheme was repeated until column 11 where 100 μl was discarded after re-suspending. Column 12 was used as a sterile control, so no antibiotic/compound was added to that column. Each transferring involved pipetting up and down 5 to 7 times. 1.10 The plates were fully dried for CFU in the 42° C. incubator, 4× dilutions in triplicates per one plate.
(§5) 1.11 The optical density of bacterial cells in the ON culture was measured at wavelength 600 nm (OD600). Then the ON culture was diluted to an OD600=0.1. 1.12 Then the OD600 was re-measured to make certain that it was between 0.08 and 0.13. 1.13 The prepared 0.1 culture of 1.12 was diluted 100× more by transferring of 100 μl thereof, to 10 ml of MH or BHI media (enough for a 96-well plate). 1.14 Then 200 μl of the 100× dilution in 1.13 was transferred to Eppendorf tubes and kept cold until use. 1.15 100 μl of culture with an OD600 on approximately 0.001 was dispensed to each well of columns 1 to 11. 1.16 The plate was closed. Covered with aluminium foil and small holes were created with a 100-200 μL tip.
(§6) 1.17 The 96-well plate was then incubated at 37° C. with agitation and left for 16-hours.
(§7) 1.18 Verification of standard inoculum: The 100× diluted culture of 1.13 was used to create 10^−1 to 10^−4 dilutions in PBS/0.9% saline (100 μl sample to 900 μl PBS, mix well and continue until 10^−4). 1.19 10 μl of the 10^−2, 10^−3 and 10^−4 dilutions in 1.18 were spotted onto very dry MH or BHI plates in triplicates. 1.20 Then incubated overnight at 37° C. 1.21 The plates were examined manually or by using the plate reader.
(In broth dilution the organism is exposed to a series of concentrations in liquid medium.)

The subject of test [2] is Multi-resistant Staphylococcus aureus (MRSA) USA300 cells. Kind of test: MIC in vitro broth micro-dilution assay, MRSA USA300. The format is cell-based. As to conditions: lowest concentration to fully inhibit visible growth (OD600), ATCC strain; for MIC: Staphylococcus aureus, read-out: in vitro susceptibility (MIC) MRSA USA3000. The procedure: as §1, §2, §3, §4, §5, §6, §7

In test [3] the test system is vancomycin-resistant enterococci (VRE) cells, VRE 5. Kind of test: MIC in vitro broth micro-dilution assay, VRE 5. The format is cell-based. As to conditions: lowest concentration to fully inhibit visible growth (OD600), clinical isolate, ampicillin, ciprofloxacin, vancomycin and linezolid resistant; for MIC: Enterococcus, VRE, read-out: in vitro susceptibility (MIC) VRE 5. The procedure: as §1, §2, §3, §4, §5, §6, §7

Test [4] relates to E. faecalis cells. Kind of test: MIC in vitro broth micro-dilution assay, E. faecalis. In kind it is cell-based, Enterococcus faecalis. Particulars: lowest concentration to fully inhibit visible growth (OD600), clinical isolate; for MIC: Enterococcus faecalis, read-out: in vitro susceptibility (MIC) E. Faecalis. The procedure:
as §1, §2, §3, §4, §5, §6, §7

Test [5] relates to vancomycin-resistant enterococci (VRE) cells, VRE 1. Kind of test: MIC in vitro broth micro-dilution assay, VRE 1. In kind it is cell-based. As to conditions: lowest concentration to fully inhibit visible growth (OD600), clinical isolate, ampicillin, ciprofloxacin and vancomycin resistant; for MIC: Enterococcus, VRE, read-out: in vitro susceptibility (MIC) VRE 1. The procedure:
as §1, §2, §3, §4, §5, §6, §7

In brackets after ≈: the same amount, converted by molar mass. Where only a bound is given, the exact number is not on record here.

For orientation: MIC means the lowest concentration that inhibits growth of the organism. With `C=C[C@]1(C)C[C@@H](OC(=O)Cn2cc(-c3cccc(Nc4ncnc5[nH]cnc45)c3)nn2)[C@]2(C)[C@H](C)CC[C@]3(CCC(=O)[C@H]32)[C@@H](C)[C@@H]1O` [C18, 22-[4-(3-((9H-purin-6-yl)amino)phenyl)-1,2,3-triazole-1-yl]-22-deoxypleuromutilin], the MIC in test [1] was found to be 0.5 µg/mL (≈ 0.783 µM); in test [2] it was 0.06 µg/mL (≈ 0.0939 µM); in test [3] it was 0.25 µg/mL (≈ 0.391 µM); in test [4], 0.5 µg/mL (≈ 0.783 µM); in test [5], 0.25 µg/mL (≈ 0.391 µM).

Consider `C=C[C@]1(C)C[C@@H](OC(=O)Cn2cc(-c3ccc(CN4C(=O)c5ccccc5C4=O)cc3)nn2)[C@]2(C)[C@H](C)CC[C@]3(CCC(=O)[C@H]32)[C@@H](C)[C@@H]1O` [C2, 22-[4-(4-((N-phthalimide)methyl)phenyl)-1H-1,2,3-triazol-1-yl]-22-deoxypleuromutilin], for which the MIC in test [1] was 4 µg/mL (≈ 6.02 µM); in test [2] it was 0.25 µg/mL (≈ 0.376 µM); in test [3] it was > 8 µg/mL; in test [4] it was 8 µg/mL (≈ 12 µM); in test [5], > 8 µg/mL.

As to Valnemulin [reference compound], the “in vitro susceptibility (MIC) S. Pneumonia” value in test [1] was in the range of 0.06 to 0.12 µg/mL. Moreover, the “in vitro susceptibility (MIC) MRSA USA3000” value in test [2] is 0.06 µg/mL. The “in vitro susceptibility (MIC) VRE 5” value in test [3] was 0.015 µg/mL. Also, the “in vitro susceptibility (MIC) E. Faecalis” value in test [4] stood at 0.03 µg/mL. Further, the “in vitro susceptibility (MIC) VRE 1” value in test [5] came to 0.03 µg/mL.

With `C=C[C@]1(C)C[C@@H](OC(=O)Cn2cc(-c3ccc(Cn4cnc5c(N6CCNCC6)ncnc54)cc3)nn2)[C@]2(C)[C@H](C)CC[C@]3(CCC(=O)[C@H]32)[C@@H](C)[C@@H]1O` [C11, 22-[4-(4-((6-(piperazin-1-yl)-9H-purin-9-yl)methyl)phenyl)-1H-1,2,3-triazol-1-yl]-22-deoxypleuromutilin], the MIC turned out to be 0.12 µg/mL (≈ 0.166 µM) in test [1]; 0.25 µg/mL (≈ 0.346 µM) in test [2]; 0.12 µg/mL (≈ 0.166 µM) in test [3]; 0.12 µg/mL (≈ 0.166 µM) in test [4]; 0.06 µg/mL (≈ 0.0831 µM) in test [5].

With `C=C[C@]1(C)C[C@@H](OC(=O)Cn2cc(-c3cccc(NC(=O)c4ccc(OC)cc4)c3)nn2)[C@]2(C)[C@H](C)CC[C@]3(CCC(=O)[C@H]32)[C@@H](C)[C@@H]1O` [C15, 22-[4-(3-(4-methoxybenzamido)phenyl)-1,2,3-triazole-1-yl]-22-deoxypleuromutilin], the MIC came to 0.25 µg/mL (≈ 0.382 µM) in test [1]; 0.12 µg/mL (≈ 0.183 µM) in test [2]; 0.25 µg/mL (≈ 0.382 µM) in test [3]; 0.25 µg/mL (≈ 0.382 µM) in test [4]; 0.12 µg/mL (≈ 0.183 µM) in test [5].

For `C=C[C@]1(C)C[C@@H](OC(=O)Cn2cc(-c3ccc(Cn4cnc5c(N6CCNCC6)ncnc54)nc3)nn2)[C@]2(C)[C@H](C)CC[C@]3(CCC(=O)[C@H]32)[C@@H](C)[C@@H]1O` [C10, 22-[4-(6-((6-(piperazin-1-yl)-9H-purin-9-yl)methyl)pyridin-3-yl)-1H-1,2,3-triazol-1-yl]-22-deoxypleuromutilin], the MIC in test [1] was 0.03 µg/mL (≈ 0.0415 µM); in test [2], 0.12 to 0.25 µg/mL (≈ 0.166 to 0.346 µM); in test [3] it was 0.12 µg/mL (≈ 0.166 µM); in test [4], 0.03 µg/mL (≈ 0.0415 µM); in test [5], 0.03 µg/mL (≈ 0.0415 µM).

Consider Retapamulin [reference compound], for which the “in vitro susceptibility (MIC) S. Pneumonia” value in test [1] was 0.12 µg/mL. Besides, in test [2], the “in vitro susceptibility (MIC) MRSA USA3000” value stood at 0.25 µg/mL. The “in vitro susceptibility (MIC) VRE 5” value in test [3] came out at 0.03 µg/mL. The “in vitro susceptibility (MIC) E. Faecalis” value in test [4] was found to be 0.12 µg/mL. Moreover, the “in vitro susceptibility (MIC) VRE 1” value in test [5] is 0.03 µg/mL.

Consider `C=C[C@]1(C)C[C@@H](OC(=O)Cn2cc(-c3ccc(Cn4cnc5c(N)ncnc54)c(O)c3)nn2)[C@]2(C)[C@H](C)CC[C@]3(CCC(=O)[C@H]32)[C@@H](C)[C@@H]1O` [C9, 22-[4-(4-((6-amino-9H-purin-9-yl)methyl)-3-hydroxyphenyl)-1H-1,2,3-triazol-1-yl]-22-deoxypleuromutilin], for which the MIC in test [1] stood at 0.25 µg/mL (≈ 0.374 µM); in test [2], 0.03 µg/mL (≈ 0.0449 µM); in test [3], 0.25 µg/mL (≈ 0.374 µM); in test [4] it was 0.25 µg/mL (≈ 0.374 µM); in test [5], 0.25 µg/mL (≈ 0.374 µM).

On to `C=C[C@]1(C)C[C@@H](OC(=O)Cn2cc(-c3ccc([C@@H](C)n4cnc5c(N6CCNCC6)ncnc54)cc3)nn2)[C@]2(C)[C@H](C)CC[C@]3(CCC(=O)[C@H]32)[C@@H](C)[C@@H]1O` [C13, 22-[4-(4-((R)-1-(6-(piperazin-1-yl)-9H-purin-9-yl)ethyl)phenyl)-1H-1,2,3-triazol-1-yl]-22-deoxypleuromutilin], for which the MIC in test [1] was 0.25 µg/mL (≈ 0.34 µM); in test [2], 0.5 µg/mL (≈ 0.679 µM); in test [3] it was 0.12 to 0.25 µg/mL (≈ 0.163 to 0.34 µM); in test [4], 0.25 µg/mL (≈ 0.34 µM); in test [5] it was 0.25 µg/mL (≈ 0.34 µM).

(Values after patent US20230219964A1, “ANTIBACTERIAL AND ANTIFUNGAL PLEUROMUTILIN CONJUGATES” (SYDDANSK UNIVERSITET, priority 2020, published 2023).)
